In US20230241061A1, “METHODS AND PHARMACEUTICAL COMPOSITIONS FOR THE TREATMENT OF FGFR3-RELATED COGNITIVE DEFICIT” (INSERM (INSTITUT NATIONAL DE LA SANTÉ ET DE LA RECHERCHE …, priority 2020, published 2023):
Entries after “also recorded” stand apart in the source; their conditions may differ.

Tests used:
Fgfr3^Asn534Lys/+ mice [1] = test: Novel object recognition (NOR) in HCH mouse model; assay type: in vivo; conditions: 4 months old male Fgfr3^Asn534Lys/+ mice, daily subcutaneous 2 mg/kg for six days, p= 0.8697 vs control littermates, FIG. 3B
Description: FIG. 3: Learning impairment is reverse by FGFR3 tyrosine kinase inhibitor daily subcutaneous injection of BGJ398. A. Novel object location (NOL) was performed in 4 months old male animals. Discrimination index was measured 24 h after training phase to assess memory performance of Fgfr3Asn534Lys/+ and their control littermates. B. Novel object recognition (NOR) was performed in 4 months old male animals. Discrimination index was measured 24 h after training phase to assess memory performance of Fgfr3Asn534Lys/+ + BGJ398, Fgfr3Asn534Lys/+ and their control littermates. […]
(§1) We used a modified version of the NOR task as described in Glatigny et al., 2019. […] The testing room was lit with two 60-W light bulbs and behavior sessions were recorded with a camera above the testing arena (grey plastic box (60 × 40 × 32 cm)). […] The objects elicited equal levels of exploration as determined in pilot experiments and training phase. […]
The following behaviors were considered as exploration of the objects: sniffing, licking, or touching the object with the nose or with the front legs or directing the nose to the object at a distance ≤ 1 cm. Investigation was not scored if the mouse was on top of the object or completely immobile. The discrimination index was calculated as (time spent exploring the new object - time spent exploring the familiar object) / (total time spent exploring both objects). […]

Fgfr3^Asn534Lys/+ mice [2] = test: Novel object location (NOL) in HCH mouse model; assay type: in vivo; conditions: 4 months old male Fgfr3^Asn534Lys/+ mice, daily subcutaneous 2 mg/kg for six days, p= 0.9538 vs control littermates, FIG. 3A
Description: FIG. 3: Learning impairment is reverse by FGFR3 tyrosine kinase inhibitor daily subcutaneous injection of BGJ398. A. Novel object location (NOL) was performed in 4 months old male animals. Discrimination index was measured 24 h after training phase to assess memory performance of Fgfr3Asn534Lys/+ and their control littermates. B. Novel object recognition (NOR) was performed in 4 months old male animals. Discrimination index was measured 24 h after training phase to assess memory performance of Fgfr3Asn534Lys/+ + BGJ398, Fgfr3Asn534Lys/+ and their control littermates. NOR and NOL were performed on two independent groups of Fgfr3Asn534Lys/+ (n=12) Fgfr3Asn534Lys/+ + BGJ398 (n=14) and their controls (n=14).
(§2) BGJ398 was purchased from LC Laboratories, Woburn, MA, USA. […]
For the novel object location task, all procedures were identical to the novel object recognition task except that during the testing phase, rather than presenting a novel object, mice encountered both familiar objects, with one object located in a different place in the arena. The time and frequency of exploration of the novel/relocated object is measured as an index of memory. Behavior was scored on videos by two observers blind to treatment and the total exploration time of the objects was quantified in the testing phases.

FGFR3 [3] = molecular target: FGFR3 (Homo sapiens, UniProt P22607); conditions: reason given for selecting the inhibitor; cited from earlier work
Fgfr3^A385E/+ mice [4] = test: Forced swim test (FST) in CAN mouse model; assay type: in vivo; conditions: 4-month-old male Fgfr3^A385E/+ mice, daily intra-cerebro-ventricular injections for 7 days, test 1 hour after last injection, FIG. 2D
Description: (§3) A. Local daily intracerebroventricular injection with either BGJ398 or vehicle in 4 month-old male animals during 7 days. NOR training session occurred 1 hour after last injection B. NOR performed on groups injected with vehicle or BGJ398. Injection and NOR were performed on two independent groups with the three conditions each (Fgfr3^+/+ + vehicle, n=15; Fgfr3^A385E/+ + vehicle, n=14; Fgfr3^A385E/+ + BGJ398, n=14. C. Local daily intracerebroventricular injection with either BGJ398 or vehicle in 4 month-old male animals during 7 days. One FST testing session occurring 1 hour after last injection. Immobility duration was assessed during testing. D. FST performed on groups injected with vehicle or BGJ398. Injection and FST were performed on two independent groups with the three conditions each (Fgfr3^+/+ + vehicle, n=15; Fgfr3^A385E/+ + vehicle, n=14; Fgfr3^A385E/+ + BGJ398, n=14). *P<0.05 **P<0.01, ***P<0.001.NS Not significant by ANOVA with Tukey’s multiple comparisons post-test and Student’s unpaired t test.
as §2
This test is based on a similar observation than the TST. […] Mice were tested for 5 min, and the time spent immobile (behavioral despair) was quantified.

[5] = system: FGFR3 related Achondroplasia mouse model; conditions: subcutaneous injections, Komla-Ebri et al. 2016; cited from earlier work
FGFR3 [6] = molecular target: T1, FGFR3 (Mus musculus, UniProt Q61851, A385E); test: FGFR3 overactivation in the brain of CAN mouse model; assay type: in vivo; conditions: Fgfr3^A385E/+ mice
T1 construct: from tissue; host or cells: brain (hippocampus) of Fgfr3^A385E/+ knock-in mice

Fgfr3^A385E/+ mice [7] = test: Novel object recognition (NOR) in CAN mouse model; assay type: in vivo; conditions: 4-month-old male Fgfr3^A385E/+ mice, daily intra-cerebro-ventricular injections for 7 days, compared to control littermates, FIG. 2B
Description: as §3, with “test. […]” for “test.”
as §1

FGFR3 (Homo sapiens, UniProt P22607), sequence (P22607 23-806, species assumed): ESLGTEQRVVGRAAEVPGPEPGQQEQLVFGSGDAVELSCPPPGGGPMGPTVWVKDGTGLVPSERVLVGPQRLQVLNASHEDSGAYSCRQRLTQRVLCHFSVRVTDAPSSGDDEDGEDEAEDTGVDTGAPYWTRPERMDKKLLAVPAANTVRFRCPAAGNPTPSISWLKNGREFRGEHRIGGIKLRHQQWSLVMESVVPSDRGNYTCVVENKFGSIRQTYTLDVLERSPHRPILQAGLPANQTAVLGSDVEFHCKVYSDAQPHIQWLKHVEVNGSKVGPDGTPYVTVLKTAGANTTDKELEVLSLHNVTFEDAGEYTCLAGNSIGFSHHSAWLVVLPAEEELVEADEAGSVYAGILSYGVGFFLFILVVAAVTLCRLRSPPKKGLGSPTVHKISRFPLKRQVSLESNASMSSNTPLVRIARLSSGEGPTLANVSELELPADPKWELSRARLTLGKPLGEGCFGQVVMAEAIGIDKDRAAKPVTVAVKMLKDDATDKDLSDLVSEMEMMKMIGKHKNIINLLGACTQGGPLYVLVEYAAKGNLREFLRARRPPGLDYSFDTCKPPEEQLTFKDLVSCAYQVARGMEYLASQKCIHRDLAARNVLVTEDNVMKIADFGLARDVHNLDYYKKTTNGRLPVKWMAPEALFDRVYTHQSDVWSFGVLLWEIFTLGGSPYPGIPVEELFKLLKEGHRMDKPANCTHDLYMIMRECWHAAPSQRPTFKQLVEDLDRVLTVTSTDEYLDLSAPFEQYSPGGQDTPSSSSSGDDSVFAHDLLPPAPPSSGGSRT
T1 sequence (Q61851 21-801 A385E): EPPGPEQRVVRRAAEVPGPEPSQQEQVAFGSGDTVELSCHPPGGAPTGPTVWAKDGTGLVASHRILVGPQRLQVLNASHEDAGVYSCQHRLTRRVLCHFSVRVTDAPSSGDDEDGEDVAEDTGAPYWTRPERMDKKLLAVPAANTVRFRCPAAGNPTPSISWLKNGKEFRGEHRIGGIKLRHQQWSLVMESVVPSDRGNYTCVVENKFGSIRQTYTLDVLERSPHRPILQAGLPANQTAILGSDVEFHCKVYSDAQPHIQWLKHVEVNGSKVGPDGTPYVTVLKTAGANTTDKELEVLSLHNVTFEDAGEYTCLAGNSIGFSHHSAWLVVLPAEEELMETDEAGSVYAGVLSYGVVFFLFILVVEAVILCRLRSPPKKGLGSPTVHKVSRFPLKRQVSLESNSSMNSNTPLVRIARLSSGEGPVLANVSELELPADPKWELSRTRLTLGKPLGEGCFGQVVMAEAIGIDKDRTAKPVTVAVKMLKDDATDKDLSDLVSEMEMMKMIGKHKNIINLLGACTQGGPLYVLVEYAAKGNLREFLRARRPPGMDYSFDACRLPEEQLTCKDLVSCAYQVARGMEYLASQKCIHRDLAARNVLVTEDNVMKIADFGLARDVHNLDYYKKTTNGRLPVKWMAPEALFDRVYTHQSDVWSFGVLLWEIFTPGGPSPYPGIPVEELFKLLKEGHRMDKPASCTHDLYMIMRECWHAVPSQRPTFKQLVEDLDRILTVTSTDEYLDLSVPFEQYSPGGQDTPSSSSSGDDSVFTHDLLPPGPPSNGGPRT

In the case of `CCN1CCN(c2ccc(Nc3cc(N(C)C(=O)Nc4c(Cl)c(OC)cc(OC)c4Cl)ncn3)cc2)CC1` [BGJ398, 3-(2,6-dichloro-3,5-dimethoxyphenyl)-1-[6-[4-(4-ethylpiperazin-1-yl)anilino]pyrimidin-4-yl]-1-methylurea], the “episodic memory deficit (NOR), exploration of the novel object” value (Fgfr3^Asn534Lys/+ mice [1]) is listed as “to the same levels than control littermates”, the “spatial memory deficit (NOL), exploration of the relocated object” value (Fgfr3^Asn534Lys/+ mice [2]) is listed as “sufficient to restore the spatial (NOL)” and the “binding specificity for FGFR3” value (FGFR3 [3]) is listed as “highest binding specificity for FGFR3”. The “coping strategy to an inescapable stress in the FST (immobility duration)” value (Fgfr3^A385E/+ mice [4]) was “reestablished the coping strategy to an inescapable stress”, the FGFR3 over-activation [5] was “abolished the FGFR3 over-activation” and the “chondrodysplasia phenotype / skeletal anomalies” value [5] was “rescued the chondrodysplasia phenotype; also recorded: efficacy of BGJ398 in skeletal anomalies”. The “FGFR3 overactivation in the brain” value (FGFR3 [6]) was “inhibited the FGFR3 overactivation in the brain” and the “memory deficits in the NOR paradigm (discrimination index)” value (Fgfr3^A385E/+ mice [7]) was “reversed the memory deficits”.
